Molecules are shown by their SMILES.

Here are results for one compound from paper PMC6934184, “Selective DNA-PKcs inhibition extends the therapeutic index of localized radiotherapy and chemotherapy” (The Journal of Clinical Investigation, 2019).

For this assay, the target named is T1, PASK (Homo sapiens, UniProt Q96RG2).
T1 construct: purchased Thermo Fisher Scientific (Life Technologies) SelectScreen
The assay is described as follows: SelectScreen Z'LYTE. Type of assay: biochemical. Put shortly:
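NU5455 was profiled across the SelectScreen Broad panel of kinase activity and binding assays. Z'LYTE reactions such as CSF1R ran at apparent Km ATP, while the Adapta CAMK1 assay used ATP listed as 10. Values are given as percent.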

T1 sequence (Q96RG2 whole entry): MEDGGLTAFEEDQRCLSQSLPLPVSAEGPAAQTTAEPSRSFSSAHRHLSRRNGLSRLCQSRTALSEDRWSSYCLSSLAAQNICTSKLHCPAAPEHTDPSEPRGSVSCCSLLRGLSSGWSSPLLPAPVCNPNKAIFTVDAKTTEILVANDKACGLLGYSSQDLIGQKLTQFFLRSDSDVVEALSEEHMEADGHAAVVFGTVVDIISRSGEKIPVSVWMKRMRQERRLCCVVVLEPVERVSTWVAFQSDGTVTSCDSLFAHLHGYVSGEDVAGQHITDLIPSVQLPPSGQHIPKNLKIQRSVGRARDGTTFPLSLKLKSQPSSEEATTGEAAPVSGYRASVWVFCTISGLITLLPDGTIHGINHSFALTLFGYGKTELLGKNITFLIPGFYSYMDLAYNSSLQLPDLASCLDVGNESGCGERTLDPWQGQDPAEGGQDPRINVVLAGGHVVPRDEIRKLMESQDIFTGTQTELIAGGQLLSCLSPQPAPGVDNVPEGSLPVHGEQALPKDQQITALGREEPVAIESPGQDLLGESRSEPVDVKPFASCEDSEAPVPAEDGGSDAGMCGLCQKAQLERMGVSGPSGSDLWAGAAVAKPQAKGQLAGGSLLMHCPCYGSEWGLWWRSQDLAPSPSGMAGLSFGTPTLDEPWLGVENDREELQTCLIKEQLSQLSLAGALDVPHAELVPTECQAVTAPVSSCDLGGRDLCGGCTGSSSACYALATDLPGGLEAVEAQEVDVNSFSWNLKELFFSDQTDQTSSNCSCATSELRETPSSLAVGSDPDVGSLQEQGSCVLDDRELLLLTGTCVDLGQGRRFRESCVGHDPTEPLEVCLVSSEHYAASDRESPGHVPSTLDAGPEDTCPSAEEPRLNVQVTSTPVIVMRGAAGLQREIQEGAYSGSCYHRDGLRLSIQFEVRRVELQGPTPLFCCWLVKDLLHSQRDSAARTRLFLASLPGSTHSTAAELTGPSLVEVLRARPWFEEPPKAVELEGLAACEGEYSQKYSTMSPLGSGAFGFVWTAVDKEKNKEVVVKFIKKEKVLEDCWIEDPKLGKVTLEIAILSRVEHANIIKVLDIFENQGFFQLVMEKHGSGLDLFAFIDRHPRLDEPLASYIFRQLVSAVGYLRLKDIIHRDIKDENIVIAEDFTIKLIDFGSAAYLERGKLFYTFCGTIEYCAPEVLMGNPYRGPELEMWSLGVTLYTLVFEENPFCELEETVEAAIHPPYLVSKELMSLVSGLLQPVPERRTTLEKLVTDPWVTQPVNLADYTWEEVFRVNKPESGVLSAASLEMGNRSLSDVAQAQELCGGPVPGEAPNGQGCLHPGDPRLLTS

`CN(C(=O)CN1CCOCC1)c1ccc2sc3c(-c4cccc5c(=O)cc(N6CC7CCC(C6)O7)oc45)cccc3c2c1` [NU5455]: the inhibition – broadly, the share of the control response that was lost under treatment – at 1 µM stood at 2.3%.
